The results in this text go back to patent US20210290676A1, “IMPROVING THE EFFICACY AND SAFETY OF ADOPTIVE CELLULAR THERAPIES” (University of Southern California, priority 2018, published 2021).

What all share (type): cell-based, human
Test [1] deals with Pgp+ (DiOC2(3)-dye effluxing) T cells. The test can be described thus: DiOC2(3) dye efflux flow cytometry of inhibitor-treated T cells. As to conditions: treatment for 13 days, IL2 + CD3 and CD28 antibodies. How it is done:
(§1) The use of P-glycoprotein (Pgp)-mediated efflux of DiOC2(3) to isolate stem like T cells for adoptive cellular therapy has been described in application no. […] In the following examples, DiOC2(3) staining was used to study the effect of different inhibitors on generation of stem like T cells.
(§2) DAY 0: Blood was obtained from unidentified donor. After RBC lysis, PBMC were collected using Ficoll-Hypaque separation. […] T cells were cultured in three different conditions: • 1. XVIVO 15 medium (Lonza) with IL2 50 IU/ml, CD3 antibody (30 ng/ml) and CD28 antibody (30 ng/ml). • 2. XVIVO 15 medium (Lonza) with CD3 antibody (30 ng/ml) and CD28 antibody (30 ng/ml). • 3. XVIVO 15 medium (Lonza) with IL2 50 IU/ml DAY 1: Cells were plated in a 6-well plate at a density of 1 million cells in 2 ml/of media (as described above) and treated with different inhibitors
(§3) The cell growth medium was changed in 6-well plates and fresh drugs were added at same concentration for one more week.
(§4) […] (DAY 11): Culture medium was changed and fresh drugs were added in 6-well plates.
(§5) Subsequently, cells were washed with RPMI medium and dye was effluxed at 37° C. for 90 min. Cells were washed with […], stained with CD62L-APC (5 μl/100 μl/sample) at 4° C. for 1 h, washed twice with PBS+1% FBS and analyzed on flow cytometer to check if these drugs treatment leads to increase in Pgp+/CD62L positive population.
(§6) Day 0: Blood was obtained from unidentified donor. After RBC lysis, PBMC were collected using Ficoll-Hypaque separation. 200 million T cells were isolated from PBMCs using CD3 microbeads. T cells were cultured overnight in XVIVO 15 medium (Lonza) with IL2 (50 IU/ml), 30 ng/ml of CD3 and CD28 antibodies
(§7) Day 1: Cells were plated in 24-well plates at a density of 0.3 million cells/ml in each well and treated with different drugs.
(§8) On day 7, culture medium was replaced with fresh medium with fresh drugs.
(§9) On day 13, culture medium was replaced with fresh medium and fresh drugs. Half of the cells were transferred to 6-well plates.
(§10) Day 14: An aliquot of cells with all the treatments listed above (for 13 days) was used to stain the cells with DiOC2(3) (60 ng/ml in RPMI medium) at 4° C. for 40 min, washed with RPMI medium, DiOC2(3) dye was effluxed at 37° C. for 90 min, washed with PBS+1% FBS, stained with CD62L-APC antibody. CD62L is a marker for resting T cells. (5 μl/100 μl/sample) at 4° C. for 1 h, washed twice with PBS+1% FBS and analyzed on flow cytometer to check if these drugs are affecting the dye-effluxing or Pgp+ (i.e., DiOC2(3)-dull) T-cell population.
A general note: In flow cytometry, cells or beads pass a laser one at a time.

The subject of test [2] is Pgp+ (DiOC2(3)-dye effluxing cells) and CD62L+ T cells. The test can be described thus: DiOC2(3) dye efflux plus CD62L-APC staining, flow cytometry of inhibitor-treated T cells. As to conditions: treatment for 13 days, IL2 + CD3 and CD28 antibodies. How it is done: as §1, §2, §3, §4, §5, §6, §7, §8, §9, §10
Test [3] concerns CD8+CD45RA+CCR7+CD62L+ T cells. The test can be described thus: Flow cytometry for CD8, CD45RA, CCR7 and CD62L on inhibitor-treated T cells. As to conditions: cells cultured for 14 days. How it is done:
as §2
(§11) A second aliquot of the cells cultured for 13 days with all the treatments listed above (1-21) was washed with PBS+1% FBS, stained with CD8-PerCP, CD45RA-FITC, CCR7-PE and CD62L-APC ([…] for each of 4 antibodies) at 4° C. for 1 h, washed twice with […] and analyzed on flow cytometer to check if these drugs are enriching T stem cells showing surface expression of CD8+CD45RA+CCR7+CD62L+.
as §6, §7, §8, §9
(§12) A second aliquot of the cells cultured for 14 days with all the treatments listed above was washed with PBS+1% FBS, stained with CD8-PerCP, CD45RA-FITC, CCR7-PE and CD62L-APC (5 ul/100 ul/sample for each of 4 antibodies) at 4° C. for 1 h, washed twice with PBS+1% FBS and analyzed on flow cytometer to check if these drugs are enriching for T cells showing surface expression of CD8+CD45RA+CCR7+CD62L+.

Test [4] concerns CD45RA+CCR7+CD62L+ T cells. The test can be described thus: Flow cytometry for CD45RA, CCR7 and CD62L on inhibitor-treated T cells (all T cells). As to conditions: cells cultured for 14 days. How it is done:
as §2, §11, §6, §7, §8, §9, §12

Take `COc1cc(-c2cn(C)c(=O)c3cnccc23)c(OC)cc1CN(C)C` [B9564]: the “p2: pgp+ from Live cells” value stood at 13.39 in test [1] (100 nM) and 15.56 in test [1] (500 nM). The “p5: double +ve pgp+ and CD62L-APC+ from Live cells” value (shortened to “p5: double +ve pgp+ and CD62L-APC+”) in test [2] (100 nM) was 2.53; in test [2] (500 nM) it was 3.03. Besides, the figures for the “GATE P4 CD8(PerCP)+, CD45RA(FITC)+, CCR7 (PE)+, CD62L(APC)” value (“GATE P4 CD8(PerCP)+, CD45RA(FITC)+, CCR7” below) in test [3] (100 nM) and in test [3] (500 nM) were 73.18% and 83.31%, respectively. The entries for the “GATE P6 CD45RA(FITC)+, CCR7 (PE)+, CD62L(APC)” value (“GATE P6 CD45RA(FITC)+, CCR7” below) in test [4] (100 nM) and in test [4] (500 nM) were 63.27% and 73.75%, respectively.
Take `CCc1sc(N)nc1-c1ccc(OC)cc1` [CBFB]: the entries for the “p2: pgp+ from Live cells” value in test [1] (500 nM) and in test [1] (1 μM) were 16.01 and 20.93, respectively. The entries for the “p5: double +ve pgp+ and CD62L-APC+” value in test [2] (500 nM) and in test [2] (1 μM) were 2.85 and 3.56, respectively. Moreover, the “GATE P4 CD8(PerCP)+, CD45RA(FITC)+, CCR7” value in test [3] (500 nM) was determined as 74.77%; in test [3] (1 μM), 74.12%. The results for the “GATE P6 CD45RA(FITC)+, CCR7” value in test [4] (500 nM) and in test [4] (1 μM) were 64.71% and 65.61%, respectively.
`CCS(=O)(=O)N1CCC([C@@H](C)n2c(C)c(C(=O)NCc3c(OC)cc(C)[nH]c3=O)c3ccccc32)CC1` [CP1169]: the “p2: pgp+ from Live cells” value stood at 25.52 in test [1] (100 nM) and 30.65 in test [1] (200 nM). Besides, the results for the “p5: double +ve pgp+ and CD62L-APC+” value in test [2] (100 nM) and in test [2] (200 nM) were 4.68 and 6.4, respectively. In addition, the “GATE P4 CD8(PerCP)+, CD45RA(FITC)+, CCR7” value in test [3] (100 nM) was found to be 81.07%; in test [3] (200 nM) it was 75.83%. The “GATE P6 CD45RA(FITC)+, CCR7” value in test [4] (100 nM) was found to be 70.48%; in test [4] (200 nM), 66.23%.
Consider `COc1cc(C)[nH]c(=O)c1CNC(=O)c1c(C)n([C@H](C)C2CCOCC2)c2ccccc12` [CPI360], for which the results for the “p2: pgp+ from Live cells” value in test [1] (100 nM) and in test [1] (500 (unit not given)) were 25.15 and 35.55, respectively. In addition, the entries for the “p5: double +ve pgp+ and CD62L-APC+” value in test [2] (100 nM) and in test [2] (500 (unit not given)) were 5.82 and 11.11, respectively. For the same compound, the results for the “GATE P4 CD8(PerCP)+, CD45RA(FITC)+, CCR7” value in test [3] (100 nM) and in test [3] (500 nM) were 81.01% and 81.26%, respectively. In addition, the figures for the “GATE P6 CD45RA(FITC)+, CCR7” value in test [4] (100 nM) and in test [4] (500 nM) were 70.85% and 69.62%, respectively.
Turning to `CS(=O)(=O)c1ccc(-c2cnc(NCc3ccco3)n3cnnc23)cc1` [EED226], the entries for the “p2: pgp+ from Live cells” value in test [1] (500 nM) and in test [1] (1 μM) were 37.6 and 43.53, respectively. Also, the “p5: double +ve pgp+ and CD62L-APC+” value in test [2] (500 nM) stood at 10.41; in test [2] (1 μM) it was 11.82. The figures for the “GATE P4 CD8(PerCP)+, CD45RA(FITC)+, CCR7” value in test [3] (500 nM) and in test [3] (1 μM) were 70.21% and 74.83%, respectively. Also, the “GATE P6 CD45RA(FITC)+, CCR7” value in test [4] (500 nM) and in test [4] (1 μM) was 60.45% throughout.
Regarding `CCN(c1cc(C#CCN2CCOCC2)cc(C(=O)NCc2c(C)cc(C)[nH]c2=O)c1C)[C@H]1CC[C@H](N(C)CCOC)CC1` [EPZ011989], the “p2: pgp+ from Live cells” value in test [1] (500 nM) came to 64.39; in test [1] (1 μM) it was 62.54. The “p5: double +ve pgp+ and CD62L-APC+” value in test [2] (500 nM) came out at 18.77; in test [2] (1 μM), 16.8. In addition, the results for the “GATE P4 CD8(PerCP)+, CD45RA(FITC)+, CCR7” value in test [3] (500 nM) and in test [3] (1 μM) were 70.63% and 72.83%, respectively. In addition, the “GATE P6 CD45RA(FITC)+, CCR7” value was 57.62% in test [4] (500 nM) and 58.31% in test [4] (1 μM).
For `CC[C@H](C)n1cc(C)c2c(C(=O)NCc3c(C)cc(C)[nH]c3=O)cc(-c3ccc(N4CCNCC4)nc3)cc21` [GSK126], the “p2: pgp+ from Live cells” value was found to be 36.37 in test [1] (100 nM) and 26.61 in test [1] (500 nM). Further, the “p5: double +ve pgp+ and CD62L-APC+” value came out at 8.83 in test [2] (100 nM) and 8.08 in test [2] (500 nM). The “GATE P4 CD8(PerCP)+, CD45RA(FITC)+, CCR7” value in test [3] (100 nM) came to 76.44%; in test [3] (500 nM), 79.6%. Besides, the results for the “GATE P6 CD45RA(FITC)+, CCR7” value in test [4] (100 nM) and in test [4] (500 nM) were 67.75% and 67.65%, respectively.
